Earlier results, collected in patent publication US11839217B2, “Composition comprising a bioactive molecule” (EUCARYO BEHEER B.V., priority 2016, dated 2023).

solubility in ethanol (ethanol): 40 to 1200 µg/mL
solubility in water (water): 30 to 50 µg/mL
Compound: C[C@@H]1C/C=C/C=C/C=C/C=C/[C@H](O[C@@H]2O[C@H](C)[C@@H](O)[C@H](N)[C@@H]2O)C[C@@H]2O[C@](O)(C[C@@H](O)C[C@H]3O[C@@H]3/C=C/C(=O)O1)C[C@H](O)[C@H]2C(=O)O [natamycin]
